{"source": "patent US20110312992A1", "about": "“Inhibitors of C-Kit and Uses Thereof” (priority 2006, published 2011)", "key": {"c-Kit": {"target": "c-Kit (Homo sapiens, UniProt P10721)", "sequence (P10721 26-976)": "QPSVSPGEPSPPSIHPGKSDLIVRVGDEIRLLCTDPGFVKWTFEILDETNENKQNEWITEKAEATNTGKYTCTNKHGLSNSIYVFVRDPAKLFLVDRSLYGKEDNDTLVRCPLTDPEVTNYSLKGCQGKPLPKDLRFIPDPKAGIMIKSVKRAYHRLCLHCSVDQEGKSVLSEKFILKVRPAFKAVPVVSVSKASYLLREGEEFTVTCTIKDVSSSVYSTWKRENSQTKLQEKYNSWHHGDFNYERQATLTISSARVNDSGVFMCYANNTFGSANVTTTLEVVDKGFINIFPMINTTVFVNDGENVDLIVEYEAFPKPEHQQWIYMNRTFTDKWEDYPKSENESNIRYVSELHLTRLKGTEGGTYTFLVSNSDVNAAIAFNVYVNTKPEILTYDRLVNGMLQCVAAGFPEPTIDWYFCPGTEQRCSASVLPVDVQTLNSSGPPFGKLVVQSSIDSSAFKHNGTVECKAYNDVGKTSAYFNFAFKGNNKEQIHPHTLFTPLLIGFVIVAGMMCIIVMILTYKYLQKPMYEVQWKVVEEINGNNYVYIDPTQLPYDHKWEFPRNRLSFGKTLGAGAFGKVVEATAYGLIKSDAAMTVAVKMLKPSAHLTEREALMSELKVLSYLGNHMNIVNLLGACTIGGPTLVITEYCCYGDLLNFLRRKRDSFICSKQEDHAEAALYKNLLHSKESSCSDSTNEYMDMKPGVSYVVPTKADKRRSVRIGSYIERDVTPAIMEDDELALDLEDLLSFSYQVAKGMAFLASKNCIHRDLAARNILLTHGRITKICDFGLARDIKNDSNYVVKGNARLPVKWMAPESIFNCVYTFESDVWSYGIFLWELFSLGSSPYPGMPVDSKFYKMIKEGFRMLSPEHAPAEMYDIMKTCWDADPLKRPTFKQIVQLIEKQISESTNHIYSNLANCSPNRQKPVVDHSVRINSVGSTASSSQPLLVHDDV", "assay": "c-Kit kinase enzymatic assay (tyrosine phosphorylation, UpState protocol)", "format": "biochemical", "conditions": "FIG. 5", "procedure": "IC50 values were determined for compounds of Examples 1, 10, 12 and 13 using a c-Kit kinase enzymatic assay. Phosphorylation of tyrosine was measured using a kinase assay protocol as provided by UpState Cell Signaling Solutions (Lake Placid, N.Y.). […] The results of the kinase assays validate the modeling and assessment of the structure/activity relationship data."}, "OCI/AML3 [1]": {"tested_on": "OCI/AML3", "assay": "MTT-based cell proliferation/toxicity assay, OCI/AML3", "parameters": "species or system human", "conditions": "for ability to reduce cell line (dose response): OCI/AML3, FIG. 25", "description": "(§1) An MTT- (3,(4,5-dimethylthiazol-2-yl)-5-(3-carboxymethoxyphenyl)-2-(4-sulfophenyl)-2H-tetrazolium) based cell proliferation/toxicity assay system (Promega, Madison, Wis.) using cell lines, including the AML cell lines OCIM2 and OCI/AML3, was used to evaluate the effectiveness of the compounds as set forth herein in inhibition of c-Kit cellular activity.\n(§2) AML cell lines OCIM2 and OCI/AML3 are human erythroleukemia lines and were provided by M. D. Minden, (Ontario Cancer Institute, Toronto, ON, Canada and as referenced in: Papayannopoulou et al., Blood (1988) 72:1029-1038; Wang et al., Leukemia (1989) 3: 236-249). Cells were maintained in RPMI 1640 culture medium (GIBCO, Grand Island, N.Y.) supplemented with 10% FCS (Flow Laboratories, McLean, Va.) and split twice weekly.\n(§3) Briefly, cells were harvested at the logarithmic phase of their growth. They were then washed twice in RPMI 1640 containing 10% FCS and counted in a hemocytometer, and their viability was determined using 0.1% trypan blue staining. Equal numbers of viable cells (5×10^4 cells per well) were incubated in RPMI 1640 medium supplemented with 10% FCS alone or with the candidate drugs at increasing concentrations; the incubations were continued for 72 h in 96-well flat-bottomed plates (Linbro; Flow Laboratories, McLean, Va.) at 37° C. in a humidified 5% CO2 atmosphere. After incubation, 20 μl of CellTiter96 One Solution Reagent (Promega) was added to each well. The plates were then incubated for an additional 60 min at 37° C. in a humidified 5% CO2 atmosphere. Immediately after incubation, absorbance was read using a 96-well plate reader at a wavelength of 490 nm. Each data point was determined six times before analysis.\n(§4) While OCIM2 and OCI/AML3 are both AML cell lines, c-Kit is expressed to a much higher degree in the OCI/AML3 line versus OCIM2, as determined by the responsiveness to stem cell factor (SCF), which mediates c-Kit receptor dimerization, activation, and autophosphorylation (Blume-Jensen, et al., (1991) EMBO Journal 10, 4121-8)."}, "[2]": {"assay": "Inhibition of cell proliferation in the absence and presence of SCF (FIG. 22)", "format": "cell-based", "conditions": "absence vs presence of externally introduced SCF"}, "AML5": {"tested_on": "AML5", "assay": "Inhibition of cell proliferation of AML1-AML6 in the presence of SCF", "format": "cell-based", "conditions": "AML5 among AML1-AML6, in the presence of SCF, FIG. 23"}, "OCIM2": {"tested_on": "OCIM2", "assay": "MTT-based cell proliferation/toxicity assay, OCIM2", "parameters": "species or system human", "description": "as §1, §2, §3, §4"}, "HCM1.2 cell line": {"tested_on": "HCM1.2 cell line", "assay": "Systemic mastocytosis cell line with mutated c-Kit (position 816)", "format": "cell-based", "conditions": "HCM1.2 (mutated c-Kit, position 816) vs HCM1.1 (wild-type), FIG. 12 and 13", "procedure": "The effect of compound 1-[3-(4-fluoro)-1H-pyrazolo[3,4-b]pyridin-6-yl]-3,5-dimethoxy]benzene on two systemic mastocytosis cell lines with unmutated (wild-type) c-Kit (HCM1.1 cell line) and a cell line with mutated c-Kit (mutation at position 816) (HCM1.2 cell line) was also determined. Cell lines were obtained from Dr. Verstovsek (Leuk Res. 2006 Jun. 22, online prepublication)."}, "OCI/AML3 [3]": {"tested_on": "OCI/AML3", "assay": "Colony-forming cell proliferation, OCI/AML3", "format": "cell-based, human", "conditions": "OCI/AML3, FIG. 18"}, "OCI/AML3 [4]": {"tested_on": "OCI/AML3", "assay": "Cell cycle analysis in OCI/AML3", "format": "cell-based, human", "conditions": "OCI/AML3, FIG. 15"}}, "note": "Where a name gives a salt, the structure may show the parent alone."}
{"smiles": "COc1ccc(-c2n[nH]c3nc(-c4cccc(NC(C)=O)c4)ccc23)cc1", "note": "[Example 1, 3-{(4-Methyloxyphenyl)-1H-pyrazolo[4,3-b]pyridin-6-yl}acetanilide]", "values": [{"measurement": "IC50", "setting": "c-Kit", "value": "~95", "unit": "nM"}, {"measurement": "EC50", "setting": "OCI/AML3 [1]; Homo sapiens, OCI-AML-3, cell viability, OCI/AML3, 72 h, FIG. 6", "value": "~100", "unit": "nM"}, {"measurement": "ability to reduce cell line (dose response)", "setting": "OCI/AML3 [1]", "value": "same effective ability to reduce OCI/AML3 cell line"}]}
{"smiles": "CC(=O)Nc1cccc(-c2ccc3c(-c4ccc(F)cc4)n[nH]c3n2)c1", "note": "[Example 3, 3-[3-(4-Fluorophenyl)-1H-pyrazolo[3,4-b]pyridin-6-yl]acetanilide]", "values": [{"measurement": "ability to reduce cell line (dose response)", "setting": "OCI/AML3 [1]", "value": "same effective ability to reduce OCI/AML3 cell line"}]}
{"smiles": "COc1cc(OC)cc(-c2ccc3c(-c4ccc(F)cc4)n[nH]c3n2)c1", "note": "[Example 10]", "values": [{"measurement": "effect of SCF on inhibition of cell proliferation", "setting": "[2]", "value": "enhanced by the presence of externally introduced SCF"}, {"measurement": "inhibition of cell proliferation", "setting": "AML5", "value": "less effective inhibition"}, {"measurement": "IC50", "setting": "c-Kit", "value": "> 100000", "unit": "nM"}, {"measurement": "sensitivity of proliferation", "setting": "OCIM2; OCIM2, FIG. 16", "value": "less sensitive"}, {"measurement": "proliferation of SCF-stimulated cells", "setting": "OCIM2; OCIM2 with and without 50 ng/mL SCF, FIG. 9", "value": "inhibiting the proliferation"}, {"measurement": "sensitivity of proliferation", "setting": "OCI/AML3 [1]; OCI/AML3, FIG. 16", "value": "quite sensitive"}, {"measurement": "comparison with BMS-354825 and Gleevec", "setting": "OCI/AML3 [1]; percent of control, FIG. 24", "value": "favorable comparison"}, {"measurement": "selectivity between mastocytosis cell lines", "setting": "HCM1.2 cell line", "value": "selectivity for the cell line containing mutated c-Kit"}, {"measurement": "colony-forming cell proliferation", "setting": "OCI/AML3 [3]", "value": "inhibits"}, {"measurement": "cell cycle effect", "setting": "OCI/AML3 [4]", "value": "causes the accumulation of OCI/AML3 in Sub-G0 phase"}]}
{"smiles": "COc1ccc(-c2n[nH]c3nc(-c4cc(OC)cc(OC)c4)ccc23)cc1", "note": "[Example 12]", "values": [{"measurement": "IC50", "setting": "c-Kit", "value": "~1200", "unit": "nM"}, {"measurement": "ability to reduce cell line (dose response)", "setting": "OCI/AML3 [1]", "value": "same effective ability to reduce OCI/AML3 cell line"}]}
{"smiles": "CCOC(=O)c1ccc(-c2n[nH]c3nc(-c4ccc(C(=O)NCCN(C)C)cc4)ccc23)cc1", "note": "[Example 13]", "values": [{"measurement": "IC50", "setting": "c-Kit", "value": "~3600", "unit": "nM"}, {"measurement": "ability to reduce cell line (dose response)", "setting": "OCI/AML3 [1]", "value": "same effective ability to reduce OCI/AML3 cell line"}]}
{"smiles": "Cc1ccc(NC(=O)c2ccc(CN3CCN(C)CC3)cc2)cc1Nc1nccc(-c2cccnc2)n1", "note": "[imatinib mesylate, reference compound]", "values": [{"measurement": "response of cell line to prior art compound", "setting": "OCIM2; OCIM2 uninduced, FIG. 10", "value": "resistant"}, {"measurement": "response of cell line to prior art compound", "setting": "OCI/AML3 [1]; OCI-AML3 expressing c-Kit, FIG. 6 / FIG. 10", "value": "resistant"}]}
